We go through 27 compounds from patent US10093664B2, “Bicyclo[1.1.1]pentane inhibitors of dual leucine zipper (DLK) kinase for the treatment of disease” (priority 2016, dated 2018).

Test [1] addresses T1, human DLK (Homo sapiens (Human), UniProt Q12852). Put plainly: biochemical. Format: binding.
Protocol: The DLK dissociation constants (Kd) have been determined in the KINOMEscan KdELECT Service at DiscoveRx.
A fusion protein of full length of human DLK (amino acids 1-859) and the DNA binding domain of NFkB was expressed in transiently transfected HEK293 cells. From these HEK 293 cells, extracts were prepared in M-PER extraction buffer (Pierce) in the presence of Protease Inhibitor Cocktail Complete (Roche) and Phosphatase Inhibitor Cocktail Set II (Merck) per manufacturers' instructions. The DLK fusion protein was labeled with a chimeric double-stranded DNA tag containing the NFkB binding site (5′-[sequence]-3′) fused to an amplicon for qPCR readout, which was added directly to the expression extract (the final concentration of DNA-tag in the binding reaction is 0.1 nM).
The liganded beads were blocked with excess biotin and washed with blocking buffer (SeaBlock (Pierce), 1% BSA, 0.05% Tween 20, 1 mM DTT) to remove unbound ligand and to reduce nonspecific binding.
Extracts were used directly in binding assays without any enzyme purification steps at a ≥10,000-fold overall stock dilution (final DNA-tagged enzyme concentration <0.1 nM). Extracts were loaded with DNA-tag and diluted into the binding reaction in a two step process. First extracts were diluted 1:100 in 1× binding buffer (PBS/0.05% Tween 20/10 mM DTT/0.1% BSA/2 μg/ml sonicated salmon sperm DNA) containing 10 nM DNA-tag. This dilution was allowed to equilibrate at room temperature for 15 minutes and then subsequently diluted 1:100 in 1× binding buffer. Test compounds were prepared as 111× stocks in 100% DMSO. Kds were determined using an 11-point 3-fold compound dilution series with three DMSO control points. […] The compounds were then diluted directly into the assays such that the final concentration of DMSO was 0.9%. All reactions performed in polypropylene 384-well plates. Each was a final volume of 0.02 mL. Assays were incubated with shaking for 1 hour at room temperature. Then the beads were pelleted and washed with wash buffer (1×PBS, 0.05% Tween 20) to remove displaced kinase and test compound. […] The kinase concentration in the eluates was measured by qPCR. qPCR reactions were assembled by adding 2.5 μL of kinase eluate to 7.5 μL of qPCR master mix containing 0.15 μM amplicon primers and 0.15 μM amplicon probe. The qPCR protocol consisted of a 10 minute hot start at 95° C., followed by 35 cycles of 95° C. for 15 seconds, 60° C. for 1 minute.
Test compounds were prepared as 11× stocks in 100% DMSO. Kds were determined using an 11-point 3-fold compound dilution series with three DMSO control points. […] The compounds were then diluted directly into the assays such that the final concentration of DMSO was 0.9%. The Kds were determined using a compound top concentration of 30,000 nM. Kd measurements were performed in duplicate.
Binding constants (Kds) were calculated with a standard dose-response curve using the Hill equation:
The Hill Slope was set to −1.
For test [2], the target named is T1, human DLK. Put plainly: cell-based. Particulars: p-cJun (Ser63).
Protocol: HEK293 cells stably transfected with a Dox-inducible human DLK were plated into a 384-well plate in 20 μl (40,000 cells/well) of DMEM medium (without phenol red) containing 10% fetal bovine serum, 1.5 μg/ml doxycycline and 1 μg/ml puromycin. The cells as negative control were grown in the absence of doxycycline. The plate was incubated at 37° C., 5% CO2 for 20 h, before DMSO (control) or compounds diluted in medium were added. The cells were incubated at 37° C. for an additional 5 h, followed by lysis and the addition detection antibodies from p-cJun (Ser63) cellular assay kit (Cisbio) per manufacturer protocol. The standard dose response curves were fitted by Genedata Screener software using the variable-slope model: Signal=Signalnegative control+(SignalDMSO control−Signalnegative control)/(1+(IC50/Dose)^Hill slope). Only signal and dose in the equation were treated as known values.
[3] abbreviates: Table 2b DLK activity (global), read-out: Kd.
The mark [4] stands for this setting: Table 2b (global), additional assay runs on multiple batches, includes Table 2a data in the averaging, HEK293, read-out: Cell IC50.

Like-named read-outs stand apart in the source and are kept apart here.

For `CC(C)c1nc(-c2cnc(N)c(OC(F)(F)F)c2)cn1C12CC(N3CCN(C)CC3)(C1)C2` [Example 74, 5-(2-isopropyl-1-(3-(4-methylpiperazin-1-yl)bicyclo[1.1.1]pentan-1-yl)-1H-imidazol-4-yl)-3-(trifluoromethoxy)pyridin-2-amine], at human DLK [1] (setting [3]), the Kd amounted to 4.5 nM. Also, the IC50 on human DLK [2] (setting [4]) turned out to be 196 nM.

As for `Nc1ncc(-c2cn(C34CC(N5CCOCC5)(C3)C4)c(C3COC3)n2)cc1OC(F)(F)F` [Example 31, 5-(1-(3-morpholinobicyclo[1.1.1]pentan-1-yl)-2-(oxetan-3-yl)-1H-imidazol-4-yl)-3-(trifluoromethoxy)pyridin-2-amine], the Kd on human DLK [1] (setting [3]) came to 170 nM. Also, the IC50 on human DLK [2] (setting [4]) stood at 2570 nM.

As to `Nc1ncc(-c2cn(C34CC(N5CCC(O)CC5)(C3)C4)c(C3CC3)n2)cc1OC(F)(F)F` [Example 26, 1-(3-(4-(6-amino-5-(trifluoromethoxy)pyridin-3-yl)-2-cyclopropyl-1H-imidazol-1-yl)bicyclo[1.1.1]pentan-1-yl)piperidin-4-ol], on human DLK [1] (setting [3]), the Kd was determined as 7 nM. Besides, the IC50 at human DLK [2] (setting [4]) stood at 383 nM.

Turning to `Nc1ncc(-c2cn(C34CC(N5CCN(CC(F)(F)F)CC5)(C3)C4)c(C3CC3)n2)cc1OC(F)(F)F` [Example 15, 5-(2-cyclopropyl-1-(3-(4-(2,2,2-trifluoroethyl)piperazin-1-yl)bicyclo[1.1.1]pentan-1-yl)-1H-imidazol-4-yl)-3-(trifluoromethoxy)pyridin-2-amine], on human DLK [1] (setting [3]), the Kd was found to be 18 nM. The IC50 at human DLK [2] (setting [4]) was determined as 540 nM.

For `CCCN1CCN(C23CC(n4cc(-c5cnc(N)c(OC(F)(F)F)c5)nc4[C@@H](O)C(C)C)(C2)C3)CC1` [Example 10, (S)-1-(4-(6-amino-5-(trifluoromethoxy)pyridin-3-yl)-1-(3-(4-(propyl)piperazin-1-yl)bicyclo[1.1.1]pentan-1-yl)-1H-imidazol-2-yl)-2-methylpropan-1-ol], at human DLK [1] (setting [3]), the Kd is 0.31 nM. The IC50 on human DLK [2] (setting [4]) was found to be 13.9 nM.

For the compound `Nc1ncc(-c2cn(C34CC(C3)C4)c([C@@H](O)C(F)(F)F)n2)cc1C(F)(F)F` (single isomer, unassigned) [Example 6b], the Kd at human DLK [1] (setting [3]) stood at 0.74 nM. The IC50 at human DLK [2] (setting [4]) worked out at 38.7 nM.

On to `CN1CCN(C23CC(n4cc(-c5cnc(N)c(OC(F)(F)F)c5)nc4C4CC4)(C2)C3)C(=O)C1` [Example 23, 1-(3-(4-(6-amino-5-(trifluoromethoxy)pyridin-3-yl)-2-cyclopropyl-1H-imidazol-1-yl)bicyclo[1.1.1]pentan-1-yl)-4-methylpiperazin-2-one], for which, on human DLK [1] (setting [3]), the Kd was found to be 17 nM. On human DLK [2] (setting [4]), the IC50 came out at 471 nM.

In the case of `Nc1ncc(-c2cn(C34CC(N5CCOCC5)(C3)C4)c(C=O)n2)cc1OC(F)(F)F` [Example 66, 4-(6-amino-5-(trifluoromethoxy)pyridin-3-yl)-1-(3-morpholinobicyclo[1.1.1]pentan-1-yl)-1H-imidazole-2-carbaldehyde], the equilibrium dissociation constant (Kd) on human DLK [1] (setting [3]) amounted to 44 nM. The IC50 at human DLK [2] (setting [4]) worked out at 1400 nM.

Consider `CN1CCN(C23CC(n4cc(-c5cnc(N)c(OC(F)(F)F)c5)nc4C4CC4)(C2)C3)CC1=O` [Example 22, 4-(3-(4-(6-amino-5-(trifluoromethoxy)pyridin-3-yl)-2-cyclopropyl-1H-imidazol-1-yl)bicyclo[1.1.1]pentan-1-yl)-1-methylpiperazin-2-one], for which, on human DLK [1] (setting [3]), the Kd worked out at 9.7 nM. Further, at human DLK [2] (setting [4]), the IC50 stood at 404 nM.

`c1cc2ncc(-c3cn(C45CC(N6CCOCC6)(C4)C5)c(C4CC4)n3)cc2[nH]1` [Example 20, 4-(3-(2-cyclopropyl-4-(1H-pyrrolo[3,2-b]pyridin-6-yl)-1H-imidazol-1-yl)bicyclo[1.1.1]pentan-1-yl)morpholine]: the Kd on human DLK [1] (setting [3]) stood at 7500 nM. Moreover, the concentration for half-maximal inhibition (IC50) at human DLK [2] (setting [4]) turned out to be 12000 nM.

For `Nc1ncc(-c2cn(C34CC(N5CCOCC5)(C3)C4)c(CC(F)(F)F)n2)cc1OC(F)(F)F` [Example 48, 5-(1-(3-morpholinobicyclo[1.1.1]pentan-1-yl)-2-(2,2,2-trifluoroethyl)-1H-imidazol-4-yl)-3-(trifluoromethoxy)pyridin-2-amine], the Kd at human DLK [1] (setting [3]) came out at 13 nM. Also, on human DLK [2] (setting [4]), the half-maximal inhibitory concentration (IC50) was 413 nM.

Consider `CCC(O)c1nc(-c2cnc(N)c(OC(F)(F)F)c2)cn1C12CC(C1)C2` (centres unmarked) [Example 54, 1-(4-(6-amino-5-(trifluoromethoxy)pyridin-3-yl)-1-(bicyclo[1.1.1]pentan-1-yl)-1H-imidazol-2-yl)propan-1-ol], for which the Kd at human DLK [1] (setting [3]) is 11 nM. Besides, on human DLK [2] (setting [4]), the half-inhibitory concentration (IC50) turned out to be 319 nM.

In the case of `CC(C)(C)Cc1nc(-c2cnc(N)c(OC(F)(F)F)c2)cn1C12CC(N3CCOCC3)(C1)C2` [Example 39, 5-(1-(3-morpholinobicyclo[1.1.1]pentan-1-yl)-2-neopentyl-1H-imidazol-4-yl)-3-(trifluoromethoxy)pyridin-2-amine], the Kd at human DLK [1] (setting [3]) was found to be 210 nM. Besides, the IC50 at human DLK [2] (setting [4]) stood at 4040 nM.

`FCCn1ccc2ncc(-c3cn(C45CC(N6CCOCC6)(C4)C5)c(C4CC4)n3)cc21` [Example 21, 4-(3-(2-cyclopropyl-4-(1-(2-fluoroethyl)-H-pyrrolo[3,2-b]pyridin-6-yl)-H-imidazol-1-yl)bicyclo[1.1.1]pentan-1-yl)morpholine, bis(2,2,2-trifluoroacetate)]: on human DLK [1] (setting [3]), the Kd worked out at 330 nM. The half-maximal inhibitory concentration (IC50) at human DLK [2] (setting [4]) amounted to 5870 nM.

As to `CC(C)C(O)c1nc(-c2cnc(N)c(OC(F)(F)F)c2)cn1C12CC(C1)C2` (centres unmarked) [Example 57, 1-(4-(6-amino-5-(trifluoromethoxy)pyridin-3-yl)-1-(bicyclo[1.1.1]pentan-1-yl)-1H-imidazol-2-yl)-2-methylpropan-1-ol], the Kd at human DLK [1] (setting [3]) is 0.62 nM. For the same compound, the half-inhibitory concentration (IC50) at human DLK [2] (setting [4]) stood at 38.6 nM.

As for `CC(C)Cc1nc(-c2cnc(N)c(C(F)(F)F)c2)cn1C12CC(N3CCOCC3)(C1)C2` [Example 47, 5-(2-isobutyl-1-(3-morpholinobicyclo[1.1.1]pentan-1-yl)-1H-imidazol-4-yl)-3-(trifluoromethyl)pyridin-2-amine], at human DLK [1] (setting [3]), the equilibrium dissociation constant (Kd) came out at 6 nM. Besides, on human DLK [2] (setting [4]), the IC50 was found to be 655 nM.

`CC(C)(C)Cc1nc(-c2cnc(N)c(C(F)(F)F)c2)cn1C12CC(N3CCOCC3)(C1)C2` [Example 40, 5-(1-(3-morpholinobicyclo[1.1.1]pentan-1-yl)-2-neopentyl-1H-imidazol-4-yl)-3-(trifluoromethyl)pyridin-2-amine]: on human DLK [1] (setting [3]), the Kd turned out to be 66 nM. Also, the IC50 on human DLK [2] (setting [4]) came out at 2460 nM.

Consider `CS(=O)(=O)N1CCN(C23CC(n4cc(-c5cnc(N)c(OC(F)(F)F)c5)nc4C4CC4)(C2)C3)CC1` [Example 16, 5-(2-cyclopropyl-1-(3-(4-(methylsulfonyl)piperazin-1-yl)bicyclo[1.1.1]pentan-1-yl)-1H-imidazol-4-yl)-3-(trifluoromethoxy)pyridin-2-amine], for which the Kd at human DLK [1] (setting [3]) was 24 nM. The IC50 at human DLK [2] (setting [4]) worked out at 457 nM.

For `CC(C)c1nc(-c2cnc3ccn(C(C)c4ccccn4)c3c2)cn1C12CC(N3CCOCC3)(C1)C2` (centres unmarked) [Example 28, 4-(3-(2-isopropyl-4-(1-(1-(pyridin-2-yl)ethyl)-1H-pyrrolo[3,2-b]pyridin-6-yl)-1H-imidazol-1-yl)bicyclo[1.1.1]pentan-1-yl)morpholine], the Kd on human DLK [1] (setting [3]) amounted to 2.9 nM. In addition, the IC50 at human DLK [2] (setting [4]) is 148 nM.

`CC(C)Cc1nc(-c2cnc(N)c(OC(F)(F)F)c2)cn1C12CC(N3CCOCC3)(C1)C2` [Example 45, 5-(2-isobutyl-1-(3-morpholinobicyclo[1.1.1]pentan-1-yl)-1H-imidazol-4-yl)-3-(trifluoromethoxy)pyridin-2-amine]: the dissociation constant (Kd) on human DLK [1] (setting [3]) came out at 15 nM. Besides, the IC50 at human DLK [2] (setting [4]) came to 761 nM.

For the compound `Nc1ncc(-c2cn(C34CC(N5CCOCC5)(C3)C4)c(C3CCC3)n2)cc1OC(F)(F)F` [Example 43, 5-(2-cyclobutyl-1-(3-morpholinobicyclo[1.1.1]pentan-1-yl)-1H-imidazol-4-yl)-3-(trifluoromethoxy)pyridin-2-amine], the Kd at human DLK [1] (setting [3]) is 32 nM. Also, the IC50 at human DLK [2] (setting [4]) turned out to be 598 nM.

With `Nc1ncc(-c2cn(C34CC(N5CCCCC5)(C3)C4)c(C3CC3)n2)cc1OC(F)(F)F` [Example 19, 5-(2-cyclopropyl-1-(3-(piperidin-1-yl)bicyclo[1.1.1]pentan-1-yl)-1H-imidazol-4-yl)-3-(trifluoromethoxy)pyridin-2-amine], the Kd at human DLK [1] (setting [3]) was 14 nM. Further, the IC50 on human DLK [2] (setting [4]) worked out at 600 nM.

Turning to `CC(C)c1nc(-c2cnc(N)c(C(F)(F)F)c2)cn1C12CC(C1)C2` [Example 52, 5-(1-(bicyclo[1.1.1]pentan-1-yl)-2-isopropyl-1H-imidazol-4-yl)-3-(trifluoromethyl)pyridin-2-amine], on human DLK [1] (setting [3]), the equilibrium dissociation constant (Kd) was 49 nM. In addition, at human DLK [2] (setting [4]), the IC50 stood at 850 nM.

`Nc1ncc(-c2cn(C34CC(N5CCOCC5)(C3)C4)c(C3CCCO3)n2)cc1OC(F)(F)F` (centres unmarked) [Example 32, 5-(1-(3-morpholinobicyclo[1.1.1]pentan-1-yl)-2-(tetrahydrofuran-2-yl)-1H-imidazol-4-yl)-3-(trifluoromethoxy)pyridin-2-amine]: on human DLK [1] (setting [3]), the Kd stood at 6.7 nM. Moreover, the IC50 at human DLK [2] (setting [4]) stood at 518 nM.

As to `CC(O)c1nc(-c2cnc(N)c(OC(F)(F)F)c2)cn1C12CC(C1)C2` (centres unmarked) [Example 55, 1-(4-(6-amino-5-(trifluoromethoxy)pyridin-3-yl)-1-(bicyclo[1.1.1]pentan-1-yl)-1H-imidazol-2-yl)ethan-1-ol], on human DLK [1] (setting [3]), the equilibrium dissociation constant (Kd) turned out to be 14 nM. In addition, the IC50 on human DLK [2] (setting [4]) was determined as 443 nM.

With `Nc1ncc(-c2cn(C34CC(N5CCOCC5)(C3)C4)c([C@H](O)C(F)(F)F)n2)cc1OC(F)(F)F` (single isomer, unassigned) [Example 8a], the Kd at human DLK [1] (setting [3]) was determined as 0.36 nM. Further, the IC50 on human DLK [2] (setting [4]) is 24.8 nM.

On to `Nc1ncc(-c2cn(C34CC(N5CCOCC5)(C3)C4)c(C3CC3)n2)cc1C(F)(F)F` [Example 4], for which the Kd on human DLK [1] (setting [3]) worked out at 8.3 nM; on human DLK [1] (read-out: Avg DLK Kd), 13 nM. Also, the IC50 at human DLK [2] (Table 2a, HEK293 cells, Dox-inducible human DLK, 5 h compound, read-out: Avg Phospho-cJun Cell IC50) is 366 nM; at human DLK [2] (setting [4]), 400 nM.
